Test results: ChEMBL document CHEMBL5113402, “Inhibition of cytochrome P450 monooxygenase-catalyzed oxylipin formation by flavonoids: Evaluation of structure-activity relationship towards CYP4F2-selective inhibitors” (Eur J Med Chem, 2022)

Assays:
[1] = Octanol-water partition coefficient, logP of the compound incubated for 1 hr by HPLC analysis; assay type: physicochemical
Cytochrome P450 4F2 = biological target: T1, Cytochrome P450 4F2 (Homo sapiens, UniProt P78329); assay: Inhibition of recombinant human CYP4F2 expressed in baculovirus-infected insect cells in presence of arachidonic acid and NADPH incubated for 15 mins by jump-dilution assay relative to control; assay type: ADME
T1 sequence (P78329 whole entry): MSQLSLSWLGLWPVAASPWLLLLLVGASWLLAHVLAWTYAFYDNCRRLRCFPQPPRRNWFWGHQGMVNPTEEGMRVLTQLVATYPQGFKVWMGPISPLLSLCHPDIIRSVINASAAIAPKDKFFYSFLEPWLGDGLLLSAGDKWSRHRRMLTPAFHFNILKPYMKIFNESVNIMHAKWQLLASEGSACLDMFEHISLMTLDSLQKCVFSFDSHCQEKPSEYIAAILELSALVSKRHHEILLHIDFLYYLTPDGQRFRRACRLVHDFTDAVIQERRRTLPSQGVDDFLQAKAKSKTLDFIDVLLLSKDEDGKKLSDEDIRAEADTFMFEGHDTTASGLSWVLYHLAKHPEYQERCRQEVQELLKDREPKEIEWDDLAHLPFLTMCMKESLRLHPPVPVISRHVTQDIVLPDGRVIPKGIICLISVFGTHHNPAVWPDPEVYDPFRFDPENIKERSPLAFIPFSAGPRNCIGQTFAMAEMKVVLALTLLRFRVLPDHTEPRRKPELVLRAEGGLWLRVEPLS

[2] = Drug recovery in human liver microsomes assessed as UDPGA-fortified conjugation recovery in presence of arachidonic acid incubated for 30 mins; assay type: ADME, Microsome; conditions: read-out: Drug recovery
CYP2J2 = biological target: T2, CYP2J2 (Homo sapiens, UniProt P51589); assay: Inhibition of recombinant human CYP2J2 expressed in baculovirus-infected insect cells at 50 uM incubated for 15 mins in presence of arachidonic acid and NADPH by jump-dilution assay relative to control; assay type: ADME; conditions: probe arachidonic acid
T2 sequence (P51589 whole entry): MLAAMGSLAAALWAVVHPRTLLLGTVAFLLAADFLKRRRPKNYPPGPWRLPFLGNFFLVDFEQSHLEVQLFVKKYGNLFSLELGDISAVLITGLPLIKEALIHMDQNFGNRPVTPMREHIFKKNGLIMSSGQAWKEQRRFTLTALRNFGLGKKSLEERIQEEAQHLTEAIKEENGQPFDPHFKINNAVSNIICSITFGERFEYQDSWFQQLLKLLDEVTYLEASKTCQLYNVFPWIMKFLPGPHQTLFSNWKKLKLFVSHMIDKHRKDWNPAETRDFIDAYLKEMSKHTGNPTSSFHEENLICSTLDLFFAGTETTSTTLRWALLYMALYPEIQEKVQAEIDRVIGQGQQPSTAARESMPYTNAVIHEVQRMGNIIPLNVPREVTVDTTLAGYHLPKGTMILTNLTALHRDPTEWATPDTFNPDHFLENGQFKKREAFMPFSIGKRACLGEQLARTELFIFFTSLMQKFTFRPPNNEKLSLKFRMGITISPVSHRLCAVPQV

[3] = biological target: T3, CYP450 (20-HETE formation) (Homo sapiens, UniProt P04798+P05177+P05181+P08684+P10632+P10635+P11509+P11712+P13584+P20813+P20815+P20853+P24462+P24903+P33260+P33261+P51589+P78329+P98187+Q02928+Q08477+Q16678+Q16696+Q5TCH4+Q6VVX0+Q7Z449+Q8TAV3+Q96SQ9+Q9HB55); assay: Inhibition of CYP450 in human liver microsomes assessed as inhibition of 20-HETE formation in presence of arachidonic acid and NADPH by multi-enzyme assay based LC-MS/MS analysis; assay type: ADME, Microsome; conditions: probe arachidonic acid
[4] = biological target: T3, CYP450 (20-HETE formation); assay: Inhibition of CYP450 in human HCT-116 cells assessed as 20-HETE formation in presence of arachidonic acid incubated for 15 mins by multi-enzyme assay based LC-MS/MS analysis relative to control; assay type: ADME, cell-based; conditions: probe arachidonic acid
[5] = biological target: T3, CYP450 (20-HETE formation); assay: Inhibition of CYP450 in human liver microsomes assessed as inhibition of 20-HETE formation at 10 uM in presence of arachidonic acid and NADPH by multi-enzyme assay based LC-MS/MS analysis relative to control; assay type: ADME, Microsome; conditions: probe arachidonic acid
[6] = Plasma protein binding in human assessed as bound fraction by rapid equilibrium dialysis assay; assay type: ADME, cell-free; conditions: read-out: PPB
[7] = Apparent permeability of the compound by PAMPA assay; assay type: ADME
Homo sapiens = species on record: Homo sapiens; assay: Selectivity index, log ratio of Inhibition of CYP450 in human liver microsomes assessed as inhibition of EpETrE formation in presence of arachidonic acid to Inhibition of CYP450 in human liver microsomes assessed as inhibition of 20-HETE formation in presence of arachidonic acid
[8] = Drug recovery in human HCT-116 cells incubated for 24 hrs; assay type: ADME, cell-based; conditions: read-out: Drug recovery
[9] = biological target: T3, CYP450 (20-HETE formation); assay: Inhibition of CYP450 in human liver microsomes assessed as inhibition of 20-HETE formation in presence of arachidonic acid and NADPH by multi-enzyme assay based LC-MS/MS analysis relative to control; assay type: ADME, Microsome; conditions: probe arachidonic acid

logP at 1 h [1]: 4.06
IC50 (Cytochrome P450 4F2): 0.76 µM
remaining at 0.5 h [2]: > 95%
inhibition at 0.25 h, 50 µM (CYP2J2): < 25%
IC50 [3]: 4.9 µM
IC50 at 15 min [4]: 1.9 µM
inhibition at 10 µM [5]: 53%
fraction unbound [6]: < 0.05
Papp [7]: 4.6 ×10⁻⁶ cm/s
log(ratio) (Homo sapiens): 0.58
remaining at 24 h [8]: 89%
IC50 [9]: 2.8 µM
SMILES: O=c1cc(-c2ccc(C(F)(F)F)cc2)oc2ccccc12
